Data as given in ChEMBL document CHEMBL2203087, “Analogue-based design, synthesis and docking of non-steroidal anti-inflammatory agents. Part 2: methyl sulfanyl/methyl sulfonyl substituted 2,3-diaryl-2,3-dihydro-1H-quinazolin-4-ones” (Bioorg Med Chem, 2012).
Activity calls are given as the source filed them. No cut-off for these calls is given here.

Legend:
[1] = test system: Rattus norvegicus; assay: Antiinflammatory activity in rat assessed as inhibition of carrageenan-induced paw edema at 50 mg/kg, po measured at 90 mins after carrageenan challenge by plethysmographic analysis; type: functional; settings: 1.5 h
[2] = test system: Rattus norvegicus; assay: Antiinflammatory activity in rat assessed as inhibition of carrageenan-induced paw edema at 50 mg/kg, po measured at 270 mins after carrageenan challenge by plethysmographic analysis; type: functional; settings: 4.5 h
[3] = test system: Rattus norvegicus; assay: Antiinflammatory activity in rat assessed as inhibition of carrageenan-induced paw edema at 50 mg/kg, po measured at 180 mins after carrageenan challenge by plethysmographic analysis; type: functional; settings: 3 h
[4] = test system: Rattus norvegicus; assay: Antiinflammatory activity in rat assessed as inhibition of carrageenan-induced paw edema at 50 mg/kg, po measured at 360 mins after carrageenan challenge by plethysmographic analysis; type: functional; settings: 6 h
[5] = organism: Ovis aries; assay: Selectivity ratio of ovine COX1 to ovine COX2 at 20 uM
[6] = molecular target: T1, Prostaglandin G/H synthase 1 (Ovis aries) (UniProt P05979); assay: Inhibition of ovine COX1 peroxidase activity assessed as TMPD oxidation at 20 uM by colorimetric analysis
T1 sequence (whole entry): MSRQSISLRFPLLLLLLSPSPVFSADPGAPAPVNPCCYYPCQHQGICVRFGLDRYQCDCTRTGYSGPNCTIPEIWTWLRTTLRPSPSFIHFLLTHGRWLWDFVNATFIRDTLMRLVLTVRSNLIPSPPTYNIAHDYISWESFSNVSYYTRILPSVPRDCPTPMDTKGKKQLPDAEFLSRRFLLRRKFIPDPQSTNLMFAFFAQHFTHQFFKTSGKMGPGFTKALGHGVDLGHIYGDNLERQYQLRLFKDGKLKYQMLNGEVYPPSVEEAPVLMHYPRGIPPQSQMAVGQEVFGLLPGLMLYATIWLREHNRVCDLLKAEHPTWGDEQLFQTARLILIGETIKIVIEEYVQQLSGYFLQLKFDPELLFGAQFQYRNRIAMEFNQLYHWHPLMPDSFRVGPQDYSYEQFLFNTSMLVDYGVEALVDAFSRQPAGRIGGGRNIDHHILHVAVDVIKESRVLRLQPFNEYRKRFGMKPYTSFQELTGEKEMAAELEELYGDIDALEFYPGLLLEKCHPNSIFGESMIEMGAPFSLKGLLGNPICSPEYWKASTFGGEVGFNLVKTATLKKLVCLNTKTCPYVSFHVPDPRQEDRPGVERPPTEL

SMILES | Selectivity ratio [5] | inhibition [6] | inhibition in vivo at 50 mg/kg [1] [%] | inhibition in vivo at 50 mg/kg [2] [%] | inhibition in vivo at 50 mg/kg [3] [%] | inhibition in vivo at 50 mg/kg [4] [%]
CSc1ccc(C2Nc3ccccc3C(=O)N2c2ccccc2)cc1 (configuration not stated) |  |  | 30 | 37 | 34 | 39
CSc1ccc(C2Nc3ccccc3C(=O)N2c2ccc(Cl)cc2)cc1 (configuration not stated) | 0.055 | 5% | 38 | 46 | 41 | 47
CSc1ccc(C2Nc3ccccc3C(=O)N2c2ccccc2F)cc1 (configuration not stated) |  |  | 33 | 39 | 37 | 41
CSc1ccc(C2Nc3ccccc3C(=O)N2c2ccc(F)cc2)cc1 (configuration not stated) |  |  | 32 | 42 | 39 | 44
COc1ccc(N2C(=O)c3ccccc3NC2c2ccc(SC)cc2)cc1 (configuration not stated) |  |  | 33 | 38 | 35 | 40
CSc1ccc(C2Nc3ccccc3C(=O)N2c2ccc(C)cc2)cc1 (configuration not stated) |  |  | 30 | 38 | 34 | 39

More lines, main results first:

Selectivity ratio [5] | inhibition [6] | SMILES | inhibition in vivo at 50 mg/kg [1] [%] | inhibition in vivo at 50 mg/kg [2] [%] | inhibition in vivo at 50 mg/kg [3] [%] | inhibition in vivo at 50 mg/kg [4] [%]
> 0.01 | inactive | Cc1ccc(N2C(=O)c3ccccc3NC2c2ccc(S(C)(=O)=O)cc2)cc1 (configuration not stated) | 34 | 39 | 35 | 40
0.278 | 15% | CS(=O)(=O)c1ccc(C2Nc3ccccc3C(=O)N2c2ccccc2F)cc1 (configuration not stated) | 36 | 42 | 39 | 44
> 0.001 | inactive | CS(=O)(=O)c1ccc(C2Nc3ccccc3C(=O)N2c2ccc(Cl)cc2)cc1 (configuration not stated) | 37 | 46 | 42 | 51
0.577 | 41% | COc1ccc(N2C(=O)c3ccccc3NC2c2ccc(S(C)(=O)=O)cc2)cc1 (configuration not stated) | 39 | 47 | 43 | 49
0.742 | 49% | CS(=O)(=O)c1ccc(C2Nc3ccccc3C(=O)N2c2ccccc2)cc1 (configuration not stated) | 31 | 38 | 35 | 40
> 0.001 | inactive | CS(=O)(=O)c1ccc(C2Nc3ccccc3C(=O)N2c2ccc(F)cc2)cc1 (configuration not stated) | 38 | 45 | 43 | 48
